Where a name gives a salt, the structure may show the parent alone. Read-outs that look alike come from different tables or passages of the source.
Columns and labels:
Aurora B kinase = molecular target: T1, Aurora B kinase (Homo sapiens, UniProt Q96GD4); assay: Aurora B kinase assay (ADP-Glo); assay type: biochemical; conditions: compounds 10 μM; miltefosine 10 μM or 1 μM; read-out: % inhibition ± SD at 10 μΜ Aurora B
T1 construct: purchased Promega Corp
Description: Aurora B kinase assay: Inhibition of Aurora B kinase was determined using the ADP-Glo Kinase Enzyme System (Promega Corp., Madison, WI, USA). The positive control was SU6656 at a final concentration of 1 μM, with the NC being DMSO at the same concentration (v/v). An enzyme master mix containing 1 × buffer, 50 μM DTT and 17.5 ng/μL ([…]) Aurora B (all reagents provided in the kit) was prepared. A substrate master mix containing 1 × buffer, 36 μM adenosine triphosphate (ATP) and 7.5 ng/μL (15 ng/well) myelin basic protein (MBP) as a substrate (buffer and MBP were provided in the Aurora B Kinase Enzyme System; ultrapure ATP was provided in the ADP-Glo Kinase Assay System) was prepared. Two microliters of the enzyme master mix and 2 μL of the substrate master mix were added to each well of a 384-well low-volume plate. The plate was sealed using Thermowell sealing tape (Corning Inc., Corning, NY, USA) and incubated for 45 min at rt. The enzymatic reaction was stopped by adding 4 μL of ADP-Glo reagent (provided in the ADP-Glo Kinase Assay System) and the plate sealed using Thermowell sealing tape and incubated for 40 min at rt. Following this, 8 μL of detection reagent was added to each well, and the plate was sealed again and incubated for 45 min at rt, with the luminescence measured using the EnVision Multilabel 2103 Reader (PerkinElmer, Waltham, MA. USA). DMSO concentration was tolerated up to 2% v/v final.

[1] = test system: T. b. brucei L427 WT bloodstream form; assay: Activity against T. brucei bloodstream forms (resazurin-based assay); assay type: cell-based; conditions: Trypanosoma brucei; 10 μM, 72 h; read-out: Single Dose Assay 10μM Mean Inhibitory Activity (%) ± SD
Description: Trypanosoma brucei brucei Lister 427 bloodstream forms were grown at 37 °C, 5% CO2 in complete HMI-9 medium supplemented with 10% foetal calf serum (FCS) and 100 UI/mL of penicillin/streptomycin. […] The efficacy of compounds against T. brucei bloodstream forms was evaluated using a modified resazurin-based assay previously described. Mid-log bloodstream forms were added to an equal volume of serial dilutions of compounds in supplemented complete HMI-9 medium at a final cell density of 5 × 10^3/mL. Following incubation for 72 h at 37 °C 5% CO2, 20 μL of a 0.5 mM resazurin solution was added and plates were incubated for a further 4 h under the same conditions. Fluorescence was measured at 540 nm and 620 nm excitation and emission wavelength, respectively, using a Synergy 2 Multi-Mode Reader (Biotek, Winooski, VT, USA).

[2] = test system: PMA-differentiated THP-1 cells; assay: Cytotoxicity against THP-1 macrophages (MTT); assay type: cell-based; conditions: PMA-differentiated THP-1 macrophages, 72 h, read-out: Toxicity CC50 ± SD Or CC50 Interval Estimation
Description: The effect of compounds selected compounds on THP-1-derived macrophages was assessed by the colorimetric MTT assay (3-(4,5-dimethylthiazol-2-yl)-2,5-diphenyl tetrazolium bromide). Briefly, 1 × 10^5 THP-1 cells/mL were differentiated into macrophages by addition of 20 ng/mL of phorbol-myristate 13-acetate (PMA, Sigma, Saint Louis, MI, USA) for 18 h, followed by replacement with fresh medium for 24 h. Cells were incubated with 100 µL of compounds ranging from 100 to 1 µM after dilution in the RPMI complete medium containing a maximum amount of 1% DMSO. After incubation for 72 h, the medium was removed and 100 µL of 0.5 mg/mL MTT solution diluted in RPMI was added. Plates were incubated for an additional 4 h to allow viable cells to convert MTT into a purple formazan product. Solubilization of formazan crystals was achieved by the addition of 2-propanol and absorbance was read at 570 nm using a Synergy 2 Multi-Mode Reader (Biotek, Winooski, VT, USA). Cytotoxicity was evaluated by the determination of the CC50 value (drug concentration that reduced the percentage of viable cells in 50%) and calculated by non-linear regression analysis using GraphPad Prism version 8.1.1 for Windows (GraphPad Software, San Diego, CA, USA).

[3] = parameters: method as in PMID 18472998, PMID 22573856; conditions: in humans ref 12,13; cited from earlier work
[4] = test system: T. cruzi intracellular amastigotes (Y strain); assay: T. cruzi intracellular amastigotes in Swiss mouse peritoneal macrophages (high content imaging); assay type: cell-based; conditions: Trypanosoma cruzi, Peritoneal macrophage
Description: The trypomastigotes were obtained from the supernatant of a previously infected cell line (LLC-MK2). Between 5 and 7 days after infection, protozoa were collected from the supernatants of the infected LLC-MK2 cells and were then incubated with fresh RPMI 1640 medium supplemented with 0.5% FBS, with or without the compounds, for 24 h at 37 °C under a 5% CO2 atmosphere. […] The experiment was performed in duplicate for each of the three different experiments. […] To investigate the effect of the compounds on intracellular amastigotes, peritoneal macrophages from Swiss mouse (CF1) plated in 96 wells plates (Costar®, Sigma, São Paulo, Brazil) were incubated for 2 h with T. cruzi trypomastigotes at a ratio of 10 parasites to 1 cell. The non-internalized parasites were removed by washing with the RPMI 1640 medium, and the host cells were incubated for 24 h at 37 °C to allow full internalization and differentiation of trypomastigotes to amastigotes. Fresh 10% FBS-RPMI 1640 medium with 1 µg/mL Hoescht 3348 and 1 µg/mL of WGA-FITC (control) or the same solution containing the inhibitors was added to the infected cells, which were then incubated for 96 h at 37 °C. Every 24 h samples were taken and analysed in high content equipment (InCell Analyser 2000, GE Healthcare, Chicago, IL, USA) with 20× air objective (NA 0.4) using respectively filters to excitation and emission to DAPI (405/455 nm), FITC (488/505 nm) and Cy3 (514/605 nm). Six images were collected for each well for reliable statistical analysis. […] The infection index (i.e., the percentage of infected host cells multiplied by the average number of intracellular amastigotes per infected host cell) was determined by counting a total of 500 host cells. Inhibitor activity was calculated using the SigmaPlot (version 10) program (Systat Software, Inc., San Jose, CA, USA). The results are expressed as the mean values from three independent experiments. The IC50 was calculated for promastigotes and intracellular amastigotes by fitting the values to a non-linear curve analysis. […]

T1 sequence (Q96GD4 whole entry): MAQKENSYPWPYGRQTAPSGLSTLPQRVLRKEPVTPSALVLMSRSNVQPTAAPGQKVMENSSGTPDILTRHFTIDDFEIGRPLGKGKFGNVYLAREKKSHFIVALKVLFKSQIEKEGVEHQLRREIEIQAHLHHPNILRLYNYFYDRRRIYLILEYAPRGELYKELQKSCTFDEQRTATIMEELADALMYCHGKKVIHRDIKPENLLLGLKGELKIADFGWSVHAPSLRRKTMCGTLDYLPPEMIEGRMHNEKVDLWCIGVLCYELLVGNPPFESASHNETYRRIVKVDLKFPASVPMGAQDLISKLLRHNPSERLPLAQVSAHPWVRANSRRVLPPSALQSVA

| Structure (SMILES) | inhibition at 10 µM (Aurora B kinase) [%] | inhibition at 10 µM [1] [%] | also measured |
| --- | --- | --- | --- |
| CCCCCc1cn(CCCCCCCCCCCOP(=O)([O-])OCC[N+](C)(C)C)nn1 [Compound 25, 11-(4-pentyl-1H-1,2,3-triazol-1-yl)undecyl (2-(trimethylammonio)ethyl) phosphate inner salt] | -10.3 |  |  |
| C[N+](C)(C)CCOP(=O)([O-])OCCCCCCCCCCCn1cc(CC2CCCC2)nn1 [Compound 28, 11-(4-(cyclopentylmethyl)-1H-1,2,3-triazol-1-yl)undecyl (2-(trimethylammo nio)ethyl) phosphate inner salt] | -11.7 | < 20 |  |
| C[N+](C)(C)CCOP(=O)([O-])OCCCCCCCCCCCn1cc(CC2CCCCC2)nn1 [Compound 29, 11-(4-(cyclohexylmethyl)-1H-1,2,3-triazol-1-yl)undecyl (2-(trimethylammonio)ethyl) phosphate inner salt] | -6.17 |  |  |
| C[N+](C)(C)CCOP(=O)([O-])OCCCCCn1cc(CCCCCCCCNC(=O)OCc2ccccc2)nn1 [Compound 31, 5-(4-(8-(((benzyloxy)carbonyl)amino)octyl)-1H-1,2,3-triazol-1-yl)pentyl (2-(trimethylammonio)ethyl) phosphate inner salt] |  | 20 ± 1 |  |
| C[N+](C)(C)CCOP(=O)([O-])OCCCCCCCCCCCn1cc(CCCCCCCCNC(=O)OCc2ccccc2)nn1 [Compound 32, 11-(4-(8-(((benzyloxy)carbonyl)amino)octyl)-1H-1,2,3-triazol-1-yl)undecyl (2-(trimethylammonio)ethyl) phosphate inner salt] |  | 36 ± 4 |  |
| C[N+](C)(C)CCCOP(=O)([O-])OCCCCCCCCCCCn1cc(CC2CCCCC2)nn1 [Compound 33, 11-(4-(cyclohexylmethyl)-1H-1,2,3-triazol-1-yl)undecyl (3-(trimethylammonio)propyl) phosphate inner salt] |  | 23 ± 3 |  |
| CCCCCCCCc1noc(CCCCCCCCCCOP(=O)([O-])OCC[N+](C)(C)C)n1 [Compound 54, 10-(3-octyl-1,2,4-oxadiazol-5-yl)decyl (2-(trimethylammonio)ethyl) phosphate inner salt] |  |  | CC50 [2]: 10.8 µM |
| CCCCCCCCCCCCCCCCOP(=O)([O-])OCC[N+](C)(C)C [Miltefosine, hexadecylphosphocholine, reference compound] | -12.5 |  | half-life [3]: 100 to 200 h; IC50 ([4]; 24 h, read-out: IC50 24 h): 12.4 ± 0.6 µM; IC50 ([4]; 48 h, read-out: IC50 48 h): 4.59 ± 0.1 µM; IC50 ([4]; 72 h, read-out: IC50 72 h): 4.3 ± 0.12 µM |
